{"source": "patent US6376531B1", "about": "“Method of treatment using deuterium compounds” (priority 1998, dated 2002)", "origin": "cited, not measured here", "key": {"[1]": {"test_system": "mice", "conditions": "Hayes and Palmer 1976, 1972"}, "[2]": {"test_system": "mouse", "conditions": "Hayes and Palmer, Experientia 1976"}}}
{"compound": "NCCc1c[nH]c2ccc(O)cc12", "note": "[Serotonin]", "values": [{"measurement": "solubility in aqueous solutions", "value": "soluble"}]}
{"compound": "NCCc1c[nH]c2ccccc12", "note": "[Tryptamine]", "values": [{"measurement": "solubility in aqueous solutions", "value": "practically insoluble"}]}
{"compound": "N[C@@H](Cc1c[nH]c2ccc(O)cc12)C(=O)O", "note": "[5-hydroxytryptophan]", "values": [{"measurement": "solubility in aqueous solutions", "value": "soluble"}]}
{"compound": "N[C@@H](Cc1c[nH]c2ccccc12)C(=O)O", "note": "[Tryptophan]", "values": [{"measurement": "solubility in water", "value": "soluble"}]}
{"compound": "COc1ccc2[nH]cc(CCNC(C)=O)c2c1", "note": "[Melatonin]", "values": [{"measurement": "solubility in aqueous solutions", "value": "soluble"}, {"measurement": "solubility in water", "value": "soluble"}]}
{"compound": "[2H]O[2H]", "note": "[Deuterium oxide]", "values": [{"measurement": "effect on the period and entrainment of the light-dark (LD) cycle", "setting": "[1]", "value": "chronomutagenic effect"}, {"measurement": "spontaneous locomotor activity", "setting": "[2]", "value": "suppressed"}]}
{"compound": "CSCC[C@H](N)C(=O)O", "note": "[Methionine]", "values": [{"measurement": "solubility in water", "value": "soluble"}]}
{"compound": "NC[C@H](O)c1ccc(O)c(O)c1", "note": "[Norepinephrine]", "values": [{"measurement": "solubility in aqueous solutions", "value": "freely soluble"}]}
